Results as given in patent US20060173009A1, “Agent inducing increase in bone mass” (priority 2003, published 2006).

Assays:
[1] = test system: osteoporosis model (rat OVX); test: Osteoporosis model (rat OVX), Test 1: 12 weeks administration, compound A and incadronate; format: in vivo; settings: for femoral bone strength (three-point bending test) / femoral cortical bone mineral density (pQCT) / femoral cortical bone thickness (pQCT): OVX rats, compound A 30 mg/kg twice a day oral, incadronate 1 mg/kg once a day oral; for femoral bone strength (three-point bending test): in comparison with Control Group 1 (FIG. 1); for femoral cortical bone mineral density (pQCT): in comparison with Control Group 1 (FIG. 2); for femoral cortical bone thickness (pQCT): in comparison with Control Group 1 (FIG. 3)
Procedure: (§1) Female SD rats of 16 weeks of age (Charles River Japan) were used in the test. Under anesthesia, both sides of ovaries were exposed, and ovaries of all groups excluding the sham operation group were ligated and extracted. In the sham operation group, only an operation of exposing ovaries to the outside of abdomen was carried out.
(§2) Preparation of the aforementioned model was carried out by referring to the method of Kalu et al., (Bone Miner., vol. 15, p. 175 (1991)) and the method of Frost et al., (Bone Miner., vol. 18, p. 227 (1992)).
Before carrying out the ovariectomy (OVX), bone mineral density at 5 mm from the tibial proximal end was measured by pQCT. By leaving for 8 weeks after the OVX, significant reduction of the bone mineral density was confirmed. […] The bone density was measured every 4 weeks after the administration, and urine samples were collected during 24 hours from the previous day of the completion of observation period. After completion of the urine collection, they were sacrificed by exsanguinations under ether anesthesia, and samples were collected.
Bone strength of the femoral diaphysis was measured by three-point bending test (TK-252c, mfd. by Muromachi Kikai). A femur was gently put on a supporting table of 20 mm in distance between supporting points, a bending load was applied on the midpoint of femur at a rate of 10 mm/min, and a load-deformation curve was recorded until its breakage. Maximum value of the load-deformation curve was used as the ultimate force, and the slope of the linear portion of the load-defomation curve was used as the stiffness.
Using a peripheral quantitative computed tomography (PQCT, XCT960A, mfd. by Norland-Stratec), cross-section of the bone was scaned, and bone mineral density and the like various parameters were calculated by analyzing the image.
As a bone metabolism marker, measurement of lysylpyridinoline (deoxypyridinoline hereinafter) value was carried out by SRL MediSearch using an HPLC method (Uebelhart, D et al., Bone Miner., vol. 8, p. 87 (1990)). In order to exclude influence of urine volume, the thus obtained deoxypyridinoline value was corrected by dividing the value by urine creatinine concentration or multiplying the 24 hour urine volume.
The compound of Production Example 93 (6-(4-fluoropiperidin-1-yl)-3-(6-methoxypyridin-2-yl)-1,2,4-triazolo[4,3-b]pyridazine: to be referred to as compound A hereinafter) which is a typical compound of the compound (I) was used as the non-living body-derived non-peptide osteoblast differentiation promoting compound of the invention, and incadronate (Bisphonal (registered trademark)) as the bisphosphonate, respectively. Groups in which the compound A or incadronate alone and a parathyroid hormone hPTH(1-34) are to be administered were used as comparative groups. In addition, the drug-non-administered OVX group and the sham operation group were used as control groups. The compound A was orally administered twice a day as a 0.5% methyl cellulose suspension of 30 mg/5 ml/kg, and incadronate was orally administered once a day as an aqueous solution of 1 mg/2.5 ml/kg. The hPTH(1-34) was subcutaneously administered once a day as a physiological saline solution of 3 μg/1 ml/kg. To the control groups was orally administered 0.5% methyl cellulose twice a day.

[2] = test system: osteoporosis model (rat OVX); test: Osteoporosis model (rat OVX), Test 2: 4 weeks administration, compound A and alendronate; format: in vivo; settings: Test 2, OVX rats, 24 hour urine 5 weeks after the administration, EIA method (FIG. 7)
Procedure: as §1, §2
Before carrying out the ovariectomy (OVX), bone mineral density of tibial metaphysis at 5 mm from the tibial proximal end was measured by pQCT. By leaving for 8 weeks after the OVX, significant reduction of the bone mineral density of tibial metaphysis was confirmed by re-measurement. […] After 4 weeks of the administration, the cortical bone thickness and bone mineral density of the tibial diaphysis were measured in the same manner as described in the above. In addition, urine samples were collected during 24 hours 5 weeks after the administration, and the urinary deoxypyridinoline was measured by an EIA method (Osteolinks “DPD”, mfd. by Sumitomo Pharmaceutical Biomedical). […]

SMILES	femoral bone strength (three-point bending test) [1]	femoral cortical bone mineral density (pQCT) [1]	femoral cortical bone thickness (pQCT) [1]	urinary deoxypyridinoline value (urine volume correction), bone resorption index ([1]; Test 1, OVX rats, 24 hour urine, HPLC method (FIG. 4))	urinary deoxypyridinoline value (urine volume correction), bone resorption index [2]
COc1cccc(-c2nnc3ccc(N4CCC(F)CC4)nn23)n1 [compound A, 6-(4-fluoropiperidin-1-yl)-3-(6-methoxypyridin-2-yl)-1,2,4-triazolo[4,3-b]pyridazine]	increasing tendency	increasing tendency	increasing tendency	increased	increased
O=P(O)(O)C(NC1CCCCCC1)P(=O)(O)O [incadronate, reference compound]	increasing tendency	increasing tendency	increasing tendency	–	–
